{"source": "patent US20040052837A1", "about": "“Lipid conjugated anti-cancer drugs and methods of use thereof” (priority 2002, published 2004)", "tested_on": "phospholipase A2", "settings": "SUVs with 18:0,18:2-PC 80/20 mol %, Tris pH 8.8, 20 min", "data": [{"smiles": "CCCCCCCCCCCCCCCCCC(=O)OCC(COP(=O)([O-])OCC[N+](C)(C)C)OC(=O)CCCc1ccc(N(CCCl)CCCl)cc1", "note": "(stereo not shown) [18:0, Chlorambucil-PC]", "values": [{"measurement": "hydrolysis by phospholipase A2", "result": "total"}]}]}
